# From patent publication US10391095B2, “DNA-PK inhibitors” (Vertex Pharmaceuticals Incorporated, priority 2012, dated 2019)
# Molecular target: DNA-PK (Homo sapiens, UniProt P78527)
# Test: DNA-PK inhibition assay (radiometric, 33P-ATP)
# Assay type: biochemical
# Settings: 100 μM ATP, competitive tight-binding fit
# In short: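 Approx. 6 nM DNA-PK with 10 µg/mL sheared dsDNA, 0.8 mg/mL peptide substrate and 100 µM 33P-ATP in HEPES pH 7.5, 10 mM MgCl2; 45 min, phosphoric acid quench. Phosphopeptide captured on filter plates and counted by scintillation; Ki from a competitive tight-binding model fit.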
row,Compound,Ki [nM]
1,CNC(=O)c1ccnc2c([C@H](C)CNc3cc(-c4ccc(NCCC(C)O)nc4)ncn3)cccc12 (stereo partly shown) [Compound 709],< 30
2,CNC(=O)c1ccnc2c([C@H](C)CNc3cc(-c4ccc(NCc5cocn5)nc4)ncn3)cccc12 [Compound 712],< 30
3,CNC(=O)c1ccnc2c([C@H](C)CNc3cc(-c4ccc(N(C)CCOCC5CC5)nc4)ncn3)cccc12 [Compound 714],< 30
4,CNC(=O)c1ccnc2c([C@H](C)CNc3cc(-c4ccc(NCCCO)nc4)ncn3)cccc12 [Compound 715],< 30
5,CCN1CCN(c2ccc(-c3cc(NC[C@@H](C)c4cccc5c(C(=O)NC)ccnc45)ncn3)cn2)CC1=O [Compound 716],< 30
6,CNC(=O)c1ccnc2c([C@H](C)CNc3cc(-c4ccc(N(C)CCC(C)(C)O)nc4)ncn3)cccc12 [Compound 717],< 30
7,CNC(=O)c1ccnc2c([C@H](C)CNc3cc(-c4ccc(N5Cc6ccncc6C5)nc4)ncn3)cccc12 [Compound 718],< 30
8,CNC(=O)c1ccnc2c([C@H](C)CNc3cc(-c4ccc(N5CCCC5)nc4)ncn3)cccc12 [Compound 723],< 30
9,CCC(CO)Nc1ccc(-c2cc(NC[C@@H](C)c3cccc4c(C(=O)NC)ccnc34)ncn2)cn1 (stereo partly shown) [Compound 724],< 30
10,CNC(=O)c1ccnc2c([C@H](C)CNc3cc(-c4ccc(N[C@@H]5COC[C@H]5O)nc4)ncn3)cccc12 [Compound 726],< 30
11,CNC(=O)c1ccnc2c([C@H](C)CNc3cc(-c4cnc(N5CCC(O)CC5)nc4)ncn3)cccc12 [Compound 729],< 30
12,CNC(=O)c1ccnc2c([C@H](C)CNc3cc(-c4ccc(C(C)O)nc4)ncn3)cccc12 (stereo partly shown) [Compound 730],< 30
13,CNC(=O)c1ccnc2c([C@H](C)CNc3cc(-c4ccc(N5CCC(C)(O)C5)nc4)ncn3)cccc12 (stereo partly shown) [Compound 732],< 30

# Now from value to compound:
row,Ki [nM],Compound
1,< 30,CNCCN(C)c1ccc(-c2cc(NC[C@@H](C)c3cccc4c(C(=O)NC)ccnc34)ncn2)cn1 [Compound 706]
2,< 30,CNC(=O)c1ccnc2c([C@H](C)CNc3cc(-c4ccc(NCCNCCO)nc4)ncn3)cccc12 [Compound 707]
3,< 30,CNC(=O)c1ccnc2c([C@H](C)CNc3cc(-c4ccc(NCc5nc6ccccc6[nH]5)nc4)ncn3)cccc12 [Compound 710]
4,< 30,CNC(=O)c1ccnc2c([C@H](C)CNc3cc(-c4ccc(N(C)C5CCS(=O)(=O)C5)nc4)ncn3)cccc12 (stereo partly shown) [Compound 711]
5,< 30,CNC(=O)c1ccnc2c([C@H](C)CNc3cc(-c4ccc(NCCN5CCNC5=O)nc4)ncn3)cccc12 [Compound 719]
6,< 30,CNC(=O)c1ccnc2c([C@H](C)CNc3cc(-c4ccc(N5C[C@@H]6CCN(C)[C@@H]6C5)nc4)ncn3)cccc12 [Compound 720]
7,< 30,CNC(=O)c1ccnc2c([C@H](C)CNc3cc(-c4ccc(N5CCN(C(C)C)CC5)nc4)ncn3)cccc12 [Compound 722]
8,< 30,CNC(=O)c1ccnc2c([C@H](C)CNc3cc(-c4ccc(OCCN5CCCC5)cc4)ncn3)cccc12 [Compound 727]
9,< 30,CNC(=O)c1ccnc2c([C@H](C)CNc3cc(-c4cnc(N5CCCC(O)C5)nc4)ncn3)cccc12 (stereo partly shown) [Compound 728]
10,< 30,CNC(=O)c1ccnc2c([C@H](C)CNc3cc(-c4ccc(N5CCOC(C)(C)C5)nc4)ncn3)cccc12 [Compound 733]
11,< 30,CNC(=O)c1ccnc2c([C@H](C)CNc3cc(-c4ccc(N5CCC(C(C)(C)O)CC5)nc4)ncn3)cccc12 [Compound 734]
12,< 30,CNC(=O)c1ccnc2c([C@H](C)CNc3cc(-c4ccc(N5CCC6(COC6)C5)nc4)ncn3)cccc12 [Compound 735]
13,< 30,CNC(=O)c1ccnc2c([C@H](C)CNc3cc(-c4ccc(N5CC(CO)C5)nc4)ncn3)cccc12 [Compound 736]
14,< 30,CNC(=O)c1ccnc2c([C@H](C)CNc3cc(-c4ccc(Nc5cnn(CCOC)c5)nc4)ncn3)cccc12 [Compound 737]
15,< 30,CNC(=O)c1ccnc2c([C@H](C)CNc3cc(-c4ccc(NCCc5ccc(C)o5)nc4)ncn3)cccc12 [Compound 738]
